Data: patent US11332470B2, “CXCR4 inhibitors and uses thereof” (X4 Pharmaceuticals, Inc., priority 2016, dated 2022)
Where two headings read alike, the source gives them in different places.

Key:
[1] = target: T1, CXCR4 (Jurkat cells expressing CXCR4) (Homo sapiens, UniProt P61073); experiment: Chemokine (CXCL12-AF647) binding inhibition assay; conditions: CXCL12-AF647 25 ng/mL, read-out: IC50 CXCL-12 binding Jurkat
T1 construct: Jurkat cells expressing CXCR4; endogenous in cells; host or cells: Jurkat
In short: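 Cells in HBSS, 20 mM HEPES, 0.2% BSA, pH 7.4, preincubated 15 min at room temperature with compound, then 25 ng/mL CXCL12-AF647 for 30 min. After washing and paraformaldehyde fixation, bound ligand read by flow cytometry; percent inhibition calculated from MFI relative to unlabeled and ligand-only controls.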

[2] = Mouse brain uptake assay (pharmacokinetics and brain penetration after IV administration); type: in vivo, Male CD1 Mice; conditions: male, 3 mg/kg IV; for Kp / Kp uu: CD1, brain and plasma; for Kp / Kp uu / clearance / half-life: mouse; for Kp uu: read-out: Kp, uu (unbound brain/unbound plasma drug concentration ratio); for clearance / half-life: CD1, plasma; for clearance: read-out: Cl (Clearance) (converted); for half-life: read-out: t½ (half life) (converted); for AUC(0-t): CD1
Procedure: Example 15: Pharmacokinetics and Brain Penetration Experiment to Determine Brain and Plasma Concentrations of Compounds after IV Administration to Male CD1 Mice or Male SD Rats
The study design (9 animals) consisted of administrating the drug (IV: 3 mg/kg (5 mL/kg) via tail vein injection) and collecting samples at terminal bleeding for plasma and brain at 0.083, 0.5 and 1 h. The blood collection was performed as follows: the animal was restrained manually and approximately 150 μL blood/time point was collected into a dipotassium EDTA tube via retro orbital puncture under anesthesia with isoflurane. The blood sample was put on ice and centrifuged to obtain a plasma sample (2000 g, 5 min under 4° C.) within 15 minutes. The brain collection was performed as follows: a mid-line incision was made in the animal's scalp and the skin was retracted. Using small bone cutters and rongeurs, the skull overlying the brain was removed. The brain was removed using a spatula and the brain rinsed with cold saline. The brain was placed in screw-top tubes, and the tubes were stored at −70° C. until analysis. The IV dosing solution was prepared in 50 mM citrate buffer (pH 4.0) at 0.6 mg/mL.
Plasma Sample Preparation:
An aliquot of 30 μL sample was added to […] containing 50 ng/mL IS (Dexamethasone). The mixture was vortexed for 5 min and centrifuged at 14,000 rpm for 5 min. An aliquot of 5 μL supernatant was injected for LC-MS/MS analysis.
Brain Sample Preparation:
An aliquot of 30 μL brain homogenate (brain:PBS=1:3, w/v) sample was added to 150 μL IS in MeCN (Dexamethasone, 50 ng/mL). The mixture was vortexed for 5 min and centrifuged at 14,000 rpm for 5 min. An aliquot of 5 μL supernatant was injected for LC-MS/MS analysis.
The sample analysis was performed on LCMS/MS-003 (API4000, triple quadruple) under the following conditions: positive ion, ESI, MRM detection using dexamethasone as internal standard. HPLC conditions: mobile phase A: H2O (0.025% formic acid (FA) with 1 mM NH4OAc); mobile phase B: MeOH (0.025% FA with 1 mM NH4OAc) on Waters X-Bridge C18 (2.1×50 mm, 2.5 μm) column at 60° C.
A similar experiment was performed with 4 time points taken from 0-24 h.

[3] = 0-1 h, 3 time points, read-out: Kp (brain/plasma drug concentration ratio, AUC last(b)/AUC last(p))
[4] = mouse brain, time zero to 1 hr, 3 time points, read-out: AUClast (b) (area under the brain drug concentration-time curve)
[5] = mouse plasma, time zero to 1 hr, 3 time points, read-out: AUClast (p) (area under the plasma drug concentration-time curve)
[6] = 0-24 h, 4 time points, read-out: Kp (brain/plasma drug concentration ratio)
[7] = mouse brain, 0-24 h, 4 time points, read-out: AUClast (b) (area under the brain drug concentration-time curve)
[8] = mouse plasma, 0-24 h, 4 time points, read-out: AUClast (p) (area under the plasma drug concentration-time curve)

T1 sequence (P61073 whole entry): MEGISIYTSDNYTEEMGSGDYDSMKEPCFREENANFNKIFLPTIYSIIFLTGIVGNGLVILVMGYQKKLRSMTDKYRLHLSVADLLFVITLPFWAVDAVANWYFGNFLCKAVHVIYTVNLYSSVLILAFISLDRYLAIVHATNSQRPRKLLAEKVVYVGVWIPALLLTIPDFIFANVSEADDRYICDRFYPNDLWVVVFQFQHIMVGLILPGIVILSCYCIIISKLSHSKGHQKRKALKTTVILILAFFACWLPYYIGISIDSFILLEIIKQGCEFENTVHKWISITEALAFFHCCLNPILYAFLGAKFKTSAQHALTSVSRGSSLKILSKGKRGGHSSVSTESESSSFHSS

Row | IC50 [1] [nM] | Kp [2, 3] | Kp uu ([2]; 0-1 h, 3 time points) | clearance ([2]; 0-1 h, 3 time points) [mL/min/kg] | half-life ([2]; 0-1 h, 3 time points) [h] | AUC(0-t) [2, 4] [ng·h/mL] | AUC(0-t) [2, 5] [ng·h/mL] | Kp [2, 6] | Kp uu ([2]; 0-24 h, 4 time points) | clearance ([2]; 0-24 h, 4 time points) [mL/min/kg] | half-life ([2]; 0-24 h, 4 time points) [h] | AUC(0-t) [2, 7] [ng·h/mL] | AUC(0-t) [2, 8] [ng·h/mL] | Compound
1 | 0.01 to 100 | 1.86 | 1.11 | 140 | 0.269 | 742 | 400 | – | – | – | – | – | – | CN1CCN(c2cccc3[nH]c(CN4CCCC4c4ncccc4Cl)nc23)CC1 (stereo not drawn) [Compound I-26]
2 | 100 to 1000 | – | – | – | – | – | – | 0.53 | 0.07 | 66.8 | 4.29 | 394 | 737 | Cc1cccnc1C1CCCN1Cc1cn2c(N3CCN(C)C4(CC4)C3)cccc2n1 (stereo not drawn) [Compound I-29]
3 | 0.01 to 100 | – | – | – | – | – | – | 37.2 | 5.95 | 235 | 0.275 | 7260 | 195 | Cc1cccnc1C1CCCN1Cc1nc2cccc(N3CCN(C4CC4)CC3)c2[nH]1 (stereo not drawn) [Compound I-31]
4 | 0.01 to 100 | 0.77 | 0.22 | 33.2 | 5.33 | 210 | 271 | – | – | – | – | – | – | CN1CCN(c2c(CN3CCCC3c3ccccn3)nc3ccccn23)CC1 (stereo not drawn) [Compound I-41]
5 | 0.01 to 100 | 1.21 | 0.48 | 25.5 | 3.87 | 518 | 427 | – | – | – | – | – | – | CN1CCN(c2c(CN3CCCC3c3ccccn3)nc3ccc(F)cn23)CC1 (stereo not drawn) [Compound I-63]
6 | 0.01 to 100 | 1.41 | 1.99 | 25 | 3.64 | 736 | 523 | – | – | – | – | – | – | CN1CCN(c2c(CN3CCCC3c3nccs3)nc3ccccn23)CC1 (stereo not drawn) [Compound I-70]
